Results published in patent publication US8754100B2, “Nitrogen-containing fused heterocyclic compounds and their use as beta amyloid production inhibitors” (EISAI R&D Management Co., Ltd., priority 2009, dated 2014).

tested on: Aβ42 production in rat primary neuronal culture; experiment: Quantification of Aβ peptide (Aβ42 ELISA) in culture of neurons from rat fetus brain; format: cell-based; details: Rattus norvegicus, Neuron, 72 h; primary neuronal culture from cerebral cortex of embryonic day 18 Wistar rats; cultured three days after addition of compound; Aβ42 in medium by ELISA; read-out: Aβ42 Production reducing action IC50
Protocol: Quantification of Aβ Peptide in Culture of Neurons from Rat Fetus Brain
(1) Rat Primary Neuronal Culture
Primary neuronal cultures were prepared from the cerebral cortex of embryonic day 18 Wistar rats (Charles River Japan, Yokohama, Japan). Specifically, the embryos were aseptically removed from pregnant rats under ether anesthesia. The brain was isolated from the embryo and immersed in an ice-cold L-15 medium (Invitrogen Corp. Cat #11415-064, Carlsbad, Calif., USA, or SIGMA L1518, for example). The cerebral cortex was collected from the isolated brain under a stereoscopic microscope. The cerebral cortex fragments collected were enzymatically treated in an enzyme solution containing 0.25% trypsin (Invitrogen Corp. Cat #15050-065, Carlsbad, Calif., USA) and 0.01% DNase (Sigma D5025, St. Louis, Mo., USA) at 37° C. for 30 minutes to disperse the cells. Here, the enzymatic reaction was stopped by adding inactivated horse serum to the solution. The enzymatically treated solution was centrifuged at 1,500 rpm for five minutes to remove the supernatant 5 to 10 ml of a medium was added to the resulting cell mass. Neurobasal medium (Invitrogen Corp. Cat #21103-049, Carlsbad, Calif., USA) supplemented with 2% B27 supplement (Invitrogen Corp. Cat #17504-044, Carlsbad, Calif., USA), 25 μM 2-mercaptoethanol (2-ME, WAKO Cat #139-06861, Osaka, Japan), 0.5 mM L-glutamine (Invitrogen Corp. Cat #25030-081, Carlsbad, Calif., USA), and Antibiotics-Antimycotics (Invitrogen Corp. Cat #15240-062, Carlsbad, Calif., USA) was used as the medium (Neurobasal/B27/2-ME). However, the above Neurobasal medium not supplemented with 2-ME (Neurobasal/B27) was used for the assay. The cells were redispersed by mild pipetting of the cell mass to which the medium was added. The cell dispersion was filtered through a 40-μm nylon mesh (Cell Strainer, Cat #35-2340, Becton Dickinson Labware, Franklin Lakes, N.J., USA) to remove the remaining cell mass, and thus a neuronal cell suspension was obtained. The neuronal cell suspension was diluted with the medium and then plated in a volume of 100 μl/well at an initial cell density of 5×10^5 cells/cm^2 in a 96-well polystyrene culture plate pre-coated with poly-L or D-lysine (Falcon Cat #35-3075, Becton Dickinson Labware, Franklin Lakes, N.J., USA coated with poly-L-lysine using the method shown below, or BIOCOAT™ cell environments Poly-D-lysine cell ware 96-well plate, Cat #35-6461, Becton Dickinson Labware, Franklin Lakes, N.J., USA). Poly-L-lysine coating was carried out as follows. 100 μg/ml of a poly-L-lysine (SIGMA P2636, St. Louis, Mo., USA) solution was aseptically prepared with a 0.15 M borate buffer (pH 8.5). […] Thereafter, the coated 96-well polystyrene culture plate was washed with sterile water four or more times, and then dried or rinsed with sterile PBS or medium, and used for cell plating. The plated cells were cultured in the culture plate at 37° C. in 5% CO2-95% air for one day. Then, the total amount of the medium was replaced with a fresh Neurobasal/B27/2-ME medium, and then the cells were cultured for further three days.
The drug was added to the culture plate on Day 4 of culture as follows. The total amount of the medium was removed from the wells, and 180 μl/well of Neurobasal medium not containing 2-ME and containing 2% B-27 (Neurobasal/B27) was added thereto. A solution of the test compound in dimethyl sulfoxide (hereinafter abbreviated as DMSO) was diluted with Neurobasal/B27 to a concentration 10-fold higher than the final concentration. 20 μl/well of the dilution was added to and sufficiently mixed with the medium. The final DMSO concentration was 1% or less. Only DMSO was added to the control group.
The cells were cultured for three days after addition of the compound, and the total amount of the medium was collected. The resulting medium was used as an ELISA sample. […]

Row | Structure (SMILES) | IC50 [nM]
1 | COc1nc(-c2cn3c(n2)C(c2ccccc2C(F)(F)F)CCC3)ccc1-n1cnc(C)c1 (single isomer, unassigned) [Example 102, (−)-2-[6-methoxy-5-(4-methylimidazol-1-yl)pyridin-2-yl]-8-(2-trifluoromethylphenyl)-5,6,7,8-tetrahydroimidazo[1,2-a]pyridine] | 55
2 | COc1nc(-c2cn3c(n2)[C@H](c2ccccc2C(F)(F)F)CC3)ccc1-n1cnc(C)c1 (single isomer, unassigned) [Example 104, (−)-2-[6-methoxy-5-(4-methylimidazol-1-yl)pyridin-2-yl]-7-(2-trifluoromethylphenyl)-6,7-dihydro-5H-pyrrolo[1,2-a]imidazole] | 91
3 | COc1nc(-c2cn3c(n2)[C@H](c2ccc(Cl)cc2C(F)(F)F)CCC3)ccc1-n1cnc(C)c1 (single isomer, unassigned) [Example 108, (−)-8-(4-chloro-2-trifluoromethylphenyl)-2-[6-methoxy-5-(4-methylimidazol-1-yl)pyridin-2-yl]-5,6,7,8-tetrahydroimidazo[1,2-a]pyridine] | 18
4 | COc1cc(C)c(C2CCCn3nc(-c4ccc(-n5cnc(C)c5)c(OC)n4)nc32)cc1C(C)C (single isomer, unassigned; (-)) [Example 2, (−)-8-(5-isopropyl-4-methoxy-2-methylphenyl)-2-[6-methoxy-5-(4-methylimidazol-1-yl)pyridin-2-yl]-5,6,7,8-tetrahydro[1,2,4]triazolo[1,5-a]pyridine] | 10
5 | COc1nc(-c2nc3n(n2)CCC[C@@H]3c2cc(-c3ccc(C(F)(F)F)cn3)ccc2Cl)ccc1-n1cnc(C)c1 (stereo in doubt) [Example 361, (−)-8-[2-chloro-5-(5-trifluoromethylpyridine-2-yl)phenyl]-2-[6-methoxy-5-(4-methyl-1H-imidazole-1-yl)pyridine-2-yl]-5,6,7,8-tetrahydro[1,2,4]triazolo[1,5-a]pyridine] | 13
6 | COc1nc(-c2cn3c(n2)[C@H](c2ccc(Br)cc2C(F)(F)F)CCC3)ccc1-n1cnc(C)c1 [Example 100, (−)-8-(4-bromo-2-trifluoromethylphenyl)-2-[6-methoxy-5-(4-methylimidazol-1-yl)pyridin-2-yl]-5,6,7,8-tetrahydroimidazo[1,2-a]pyridine] | 9
7 | COc1cc([C@@H]2CCCn3nc(-c4ccc(-n5cnc(C)c5)c(OC)n4)nc32)cc(C(C)(C)C)c1 [Example 187] | 11
8 | COc1cc([C@@H]2CCCn3nc(-c4ccc(-n5cnc(C)c5)c(OC)n4)nc32)ccc1C(C)(C)C [Example 191] | 7
9 | COc1nc(-c2nc3n(n2)CCC[C@H]3c2cccc(C(C)(C)C)c2)ccc1-n1cnc(C)c1 [Example 193] | 13
10 | COc1nc(-c2nc3n(n2)CCC[C@H]3c2cc(C(C)(C)C)ccc2F)ccc1-n1cnc(C)c1 [Example 197] | 13
11 | COc1nc(-c2nc3n(n2)CCC[C@H]3c2cc(C(C)(C)C)ccc2Br)ccc1-n1cnc(C)c1 [Example 199] | 6
12 | COc1nc(-c2nc3n(n2)CCC[C@H]3c2cc(C(C)(C)C)c(F)cc2F)ccc1-n1cnc(C)c1 [Example 211] | 15
13 | COc1nc(-c2nc3n(n2)CCC[C@H]3c2cc(C(C)(C)C#N)c(Cl)cc2Cl)ccc1-n1cnc(C)c1 [Example 225] | 28
14 | COc1nc(-c2cn3c(n2)[C@H](c2cccc(C(C)(C)C)c2OC)CCC3)ccc1-n1cnc(C)c1 [Example 239] | 12
15 | COc1cc([C@@H]2CCCn3cc(-c4ccc(-n5cnc(C)c5)c(OC)n4)nc32)ccc1C(C)(C)C [Example 240] | 5
16 | COc1nc(-c2cn3c(n2)[C@H](c2ccc(C(C)(C)C)cc2)CCC3)ccc1-n1cnc(C)c1 [Example 242] | 9
17 | COc1nc(-c2cn3c(n2)[C@H](c2cc(C(C)(C)C#N)ccc2Cl)CCC3)ccc1-n1cnc(C)c1 [Example 245] | 16
18 | COc1nc(-c2cn3c(n2)[C@H](c2ccc(C(C)(C)C#N)cc2Cl)CCC3)ccc1-n1cnc(C)c1 [Example 246] | 55

Row | Structure (SMILES) | IC50 [nM]
19 | COc1nc(-c2cn3c(n2)[C@H](c2cc(Br)ccc2C(F)(F)F)CCC3)ccc1-n1cnc(C)c1 [Example 250] | 13
20 | COc1nc(-c2nc3n(n2)CCC[C@@H]3c2cc(C(C)(C)OC)ccc2Cl)ccc1-n1cnc(C)c1 [Example 267, (−)-2-[6-methoxy-5-(4-methyl-1H-imidazol-1-yl)pyridin-2-yl]-8-(2-chloro-5-(1-methoxy-1-methylethyl)phenyl)-5,6,7,8-tetrahydro[1,2,4]triazolo[1,5-a]pyridine] | 29
21 | COc1nc(-c2nc3n(n2)CCC[C@H]3c2cc(N3CCCCC3)ccc2Br)ccc1-n1cnc(C)c1 [Example 279] | 8
22 | COc1nc(-c2nc3n(n2)CCC[C@H]3c2ccc(Cl)c(N3CCCCC3)c2)ccc1-n1cnc(C)c1 [Example 287] | 22
23 | COc1nc(-c2nc3n(n2)CCC[C@H]3c2ccc(N3CCCCC3)cc2Cl)ccc1-n1cnc(C)c1 [Example 295] | 33
24 | COc1nc(-c2nc3n(n2)CCC[C@H]3c2ccc(N(CC3CC3)CC(F)(F)F)cc2Cl)ccc1-n1cnc(C)c1 [Example 307] | 13
25 | COc1nc(-c2nc3n(n2)CCC[C@H]3c2ccc(N(CC(F)(F)F)C3CC3)cc2Cl)ccc1-n1cnc(C)c1 [Example 309] | 14
26 | COc1nc(-c2nc3n(n2)CCC[C@H]3c2cc(N3CCC(C)CC3)ccc2Cl)ccc1-n1cnc(C)c1 [Example 311] | 12
27 | COc1nc(-c2nc3n(n2)CCC[C@H]3c2cc(N(CC3CC3)CC(F)(F)F)ccc2Cl)ccc1-n1cnc(C)c1 [Example 313] | 6
28 | COc1nc(-c2nc3n(n2)CCC[C@H]3c2cc(N(CC3CC3)CC3CC3)ccc2Cl)ccc1-n1cnc(C)c1 [Example 315] | 4
29 | COc1nc(-c2nc3n(n2)CCC[C@H]3c2cc(N3CCC(C(F)(F)F)CC3)ccc2Cl)ccc1-n1cnc(C)c1 [Example 317] | 15
30 | COc1nc(-c2nc3n(n2)CCC[C@H]3c2cc(N3CC(C)CC(C)C3)ccc2Cl)ccc1-n1cnc(C)c1 (stereo partly shown) [Example 319] | 10
31 | COc1ccc(C(C)(C)C(F)(F)F)cc1[C@@H]1CCCn2nc(-c3ccc(-n4cnc(C)c4)c(OC)n3)nc21 [Example 331] | 12
32 | COc1nc(-c2nc3n(n2)CCC[C@H]3c2ccc3c(c2)C(C)(C)CN3CC(F)(F)F)ccc1-n1cnc(C)c1 [Example 337] | 13
33 | COc1nc(-c2nc3n(n2)CCC[C@H]3c2cc(N3CCCC3)ccc2Cl)ccc1-n1cnc(C)c1 [Example 347] | 30
34 | COc1nc(-c2nc3n(n2)CCC[C@H]3c2cc(-c3ccccc3)ccc2Cl)ccc1-n1cnc(C)c1 [Example 359] | 16
35 | COc1nc(-c2nc3n(n2)CCC[C@H]3c2ccc(N3CCCCCC3)cc2)ccc1-n1cnc(C)c1 [Example 383] | 21

same assay, conditions: primary neuronal culture from cerebral cortex of embryonic day 18 Wistar rats; cultured three days after addition of compound; Aβ42 in medium by ELISA; read-out: Aβ42 Production reducing action IC50

Row | Structure (SMILES) | IC50 [nM]
36 | COc1nc(-c2nc3n(n2)CCC[C@H]3c2ccc(Br)cc2C(F)(F)F)ccc1-n1cnc(C)c1 [Example 42, −8-4-bromo-2-trifluoromethylphenyl-2-[6-methoxy-5-(4-methylimidazol-1-yl)pyridin-2-yl]-5,6,7,8-tetrahydro[1,2,4]triazolo[1,5-a]pyridine] | 52
37 | COc1ccc([C@@H]2CCCn3nc(-c4ccc(-n5cnc(C)c5)c(OC)n4)nc32)cc1C(C)(C)C [Example 59] | 7
